Experimental data reported in the NIST ThermoML archive (doi:10.1016/j.fluid.2010.03.010).

Conditions: Liquid, Vibrating tube method

CCCC[n+]1ccn(C)c1.O=S(=O)([N-]S(=O)(=O)C(F)(F)F)C(F)(F)F
Conditions	mass density [kg/m3]
345.15 K, 101.33 kPa	1392.16
346.15 K, 101.33 kPa	1391.23
347.15 K, 101.33 kPa	1390.31
348.15 K, 101.33 kPa	1389.38
349.15 K, 101.33 kPa	1388.46
350.15 K, 101.33 kPa	1387.54
351.15 K, 101.33 kPa	1386.61
352.15 K, 101.33 kPa	1385.69
353.15 K, 100 kPa	1385.8
353.15 K, 101.33 kPa	1384.77
353.15 K, 250 kPa	1385.9
353.15 K, 500 kPa	1386.1
353.15 K, 1000 kPa	1386.5
353.15 K, 2000 kPa	1387.4
353.15 K, 5000 kPa	1390.1
353.15 K, 10000 kPa	1394.3
353.15 K, 14990 kPa	1398.4
353.15 K, 20010 kPa	1402.5
353.15 K, 24990 kPa	1406.3
353.15 K, 30010 kPa	1410.2
353.15 K, 34990 kPa	1413.8
353.15 K, 40000 kPa	1417.5
353.15 K, 45000 kPa	1421
353.15 K, 50000 kPa	1424.6
353.15 K, 54990 kPa	1427.9
353.15 K, 60010 kPa	1431.3
354.15 K, 101.33 kPa	1383.85
355.15 K, 101.33 kPa	1382.93
356.15 K, 101.33 kPa	1382.01
357.15 K, 101.33 kPa	1381.09
358.15 K, 101.33 kPa	1380.17
359.15 K, 101.33 kPa	1379.25
360.15 K, 101.33 kPa	1378.34
361.15 K, 101.33 kPa	1377.42
362.15 K, 101.33 kPa	1376.5
363.15 K, 100 kPa	1376.6
363.15 K, 101.33 kPa	1375.58
363.15 K, 250 kPa	1376.7
363.15 K, 500 kPa	1376.9
363.15 K, 1010 kPa	1377.4
363.15 K, 4990 kPa	1381
363.15 K, 10010 kPa	1385.4
363.15 K, 14990 kPa	1389.6
363.15 K, 20010 kPa	1393.8
363.15 K, 25000 kPa	1397.8
363.15 K, 30010 kPa	1401.7
363.15 K, 34990 kPa	1405.5
363.15 K, 40000 kPa	1409.2
363.15 K, 45010 kPa	1412.8
363.15 K, 50000 kPa	1416.4
363.15 K, 54990 kPa	1419.9
363.15 K, 60000 kPa	1423.4
373.15 K, 100 kPa	1367.3
373.15 K, 250 kPa	1367.4
373.15 K, 500 kPa	1367.7
373.15 K, 1010 kPa	1368.2
373.15 K, 2000 kPa	1369.1
373.15 K, 4990 kPa	1371.9
373.15 K, 10000 kPa	1376.5
373.15 K, 14990 kPa	1380.8
373.15 K, 20000 kPa	1385.1
373.15 K, 24990 kPa	1389.2
373.15 K, 30010 kPa	1393.3
373.15 K, 34970 kPa	1397.1
373.15 K, 40000 kPa	1401
373.15 K, 45000 kPa	1404.7
373.15 K, 50000 kPa	1408.4
373.15 K, 54990 kPa	1411.9
373.15 K, 60010 kPa	1415.5
393.15 K, 100 kPa	1348.8
393.15 K, 250 kPa	1348.9
393.15 K, 500 kPa	1349.2
393.15 K, 1000 kPa	1349.7
393.15 K, 2000 kPa	1350.7
393.15 K, 4990 kPa	1353.7
393.15 K, 10000 kPa	1358.6
393.15 K, 15000 kPa	1363.2
393.15 K, 20010 kPa	1367.8
393.15 K, 25000 kPa	1372.1
393.15 K, 30010 kPa	1376.4
393.15 K, 35000 kPa	1380.5
393.15 K, 40000 kPa	1384.6
393.15 K, 45000 kPa	1388.5
393.15 K, 50000 kPa	1392.4
393.15 K, 55020 kPa	1396.2
393.15 K, 60000 kPa	1399.9
413.15 K, 100 kPa	1330
413.15 K, 250 kPa	1330.2
413.15 K, 500 kPa	1330.5
413.15 K, 1000 kPa	1331
413.15 K, 2000 kPa	1332.1
413.15 K, 4990 kPa	1335.3
413.15 K, 10000 kPa	1340.6
413.15 K, 14990 kPa	1345.6
413.15 K, 20010 kPa	1350.5
413.15 K, 25000 kPa	1355.1
413.15 K, 30000 kPa	1359.7
413.15 K, 34990 kPa	1364
413.15 K, 40000 kPa	1368.4
413.15 K, 45000 kPa	1372.5
413.15 K, 50000 kPa	1376.6
413.15 K, 55000 kPa	1380.6
413.15 K, 60000 kPa	1384.5
433.15 K, 100 kPa	1311
433.15 K, 250 kPa	1311.1
433.15 K, 500 kPa	1311.4
433.15 K, 1000 kPa	1312
433.15 K, 2000 kPa	1313.2
433.15 K, 4990 kPa	1316.7
433.15 K, 10000 kPa	1322.4
433.15 K, 15000 kPa	1327.8
433.15 K, 20010 kPa	1333
433.15 K, 25010 kPa	1338
433.15 K, 30010 kPa	1342.9
433.15 K, 34990 kPa	1347.5
433.15 K, 40000 kPa	1352.1
433.15 K, 45000 kPa	1356.6
433.15 K, 50000 kPa	1360.9
433.15 K, 55000 kPa	1365.1
433.15 K, 60000 kPa	1369.3
453.15 K, 100 kPa	1291.4
453.15 K, 250 kPa	1291.7
453.15 K, 500 kPa	1292
453.15 K, 1000 kPa	1292.6
453.15 K, 1950 kPa	1294
453.15 K, 4990 kPa	1297.7
453.15 K, 10000 kPa	1303.9
453.15 K, 15000 kPa	1309.7
453.15 K, 20000 kPa	1315.3
453.15 K, 25000 kPa	1320.7
453.15 K, 30010 kPa	1325.9
453.15 K, 35000 kPa	1330.9
453.15 K, 40000 kPa	1335.9
453.15 K, 45010 kPa	1340.6
453.15 K, 50000 kPa	1345.3
453.15 K, 54990 kPa	1349.8
453.15 K, 60000 kPa	1354.3
473.15 K, 100 kPa	1271.4
473.15 K, 250 kPa	1271.7
473.15 K, 500 kPa	1272
473.15 K, 990 kPa	1272.7
473.15 K, 2000 kPa	1274.2
473.15 K, 4990 kPa	1278.2
473.15 K, 10000 kPa	1285
473.15 K, 15000 kPa	1291.2
473.15 K, 20010 kPa	1297.4
473.15 K, 24990 kPa	1303.2
473.15 K, 30010 kPa	1308.9
473.15 K, 34990 kPa	1314.2
473.15 K, 40010 kPa	1319.6
473.15 K, 45000 kPa	1324.7
473.15 K, 50000 kPa	1329.7
473.15 K, 55000 kPa	1334.5
473.15 K, 60000 kPa	1339.3
